In experiment [1] the test system is CHO-K1. Nature of the experiment: Counterscreen for antagonists of the orexin 1 receptor (OX1R; HCRTR1): Homogeneous time resolved fluorescence (HTRF)-based cell-based dose response assay to identify antagonists of the parental CHO-K1 cell line. [Related pubchem assays (depositor defined):AID434989, AID435008, AID463079, AID485270, AID492963, AID492964, AID492965, AID493232, AID504699, AID504701]. The format is functional. As to conditions: Cricetulus griseus. Background: Counterscreens check selectivity or assay interference.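 Also: potency for inhibition of ATP-stimulated IP1 production as antagonists.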

Experiment [2] can be described thus: Counterscreen for antagonists of the orexin 1 receptor (OX1R; HCRTR1): Fluorescence-based cell-based high throughput dose response assay to identify antagonists of the parental CHO cell line. [Related pubchem assays (depositor defined):AID434989, AID435008, AID463079, AID485270, AID492963, AID492964, AID492965, AID493232, AID504699, AID504701]. It counts as functional.

Experiment [3] addresses T1, Orexin/Hypocretin receptor type 1 (Homo sapiens, UniProt O43613). The experiment can be described thus: Homogeneous Time Resolved Fluorescence (HTRF)-based cell-based high throughput dose response assay for antagonists of the orexin 1 receptor (OX1R; HCRTR1). [Related pubchem assays (depositor defined):AID434989, AID435008, AID463079, AID485270, AID492963, AID492964, AID492965, AID493232, AID504717, AID504718]. The format is functional. For orientation: TR-FRET usually uses a lanthanide donor and a delayed reading to cut background.

For experiment [4], the target named is T1, Orexin/Hypocretin receptor type 1. Nature of the experiment: Fluorescence-based cell-based high throughput dose response assay for antagonists of the orexin 1 receptor (OX1R; HCRTR1). [Related pubchem assays (depositor defined):AID434989, AID435008, AID463079, AID485270, AID492963, AID492964, AID492965, AID493232, AID504717, AID504718]. It counts as functional.

Experiment [5] deals with Lysine-specific demethylase 4A (Homo sapiens, UniProt O75164). The experiment can be described thus: inhibition of JMJD2A H3K9me3 demethylation – biochemical, DELFIA europium, cherry-picked samples, selectivity assay for GASC-1 inhibitor project, dose response (AID 488840).
Experiment [6] addresses Signal transducer and activator of transcription 3 (Homo sapiens, UniProt P40763). Nature of the experiment: STAT3 blockade with qPCR and toxicity readouts – cell-based, STAT1 panel, cytotoxicity, late-stage follow-up, panel member STAT3 Inhibition (AID 2078).
Experiment [7] has as its target Signal transducer and activator of transcription 1-alpha/beta (Homo sapiens, UniProt P42224). Nature of the experiment: STAT3 blockade with qPCR and toxicity readouts – cell-based, STAT1 panel, cytotoxicity, late-stage follow-up, panel member STAT1 Inhibition (AID 2078).

The results in this text go back to ChEMBL document CHEMBL1201862, “PubChem BioAssay data set” (2004).

The source made the active and inactive calls.

Usually IC50 stands for the concentration that inhibits the measured activity by half. A word on the AC50: it is the midpoint of the concentration-response curve, whichever way the signal moves.

T1 sequence (O43613 whole entry): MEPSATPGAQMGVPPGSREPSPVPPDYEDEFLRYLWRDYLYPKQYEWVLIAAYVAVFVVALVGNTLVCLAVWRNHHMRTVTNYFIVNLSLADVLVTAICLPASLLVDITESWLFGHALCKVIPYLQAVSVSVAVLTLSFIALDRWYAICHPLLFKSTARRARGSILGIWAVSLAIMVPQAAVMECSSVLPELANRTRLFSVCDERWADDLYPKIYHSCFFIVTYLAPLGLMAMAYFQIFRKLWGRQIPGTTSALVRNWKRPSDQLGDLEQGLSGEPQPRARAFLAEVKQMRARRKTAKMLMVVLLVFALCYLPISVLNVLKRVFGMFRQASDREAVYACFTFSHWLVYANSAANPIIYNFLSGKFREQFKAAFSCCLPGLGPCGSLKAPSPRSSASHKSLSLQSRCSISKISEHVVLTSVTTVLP
Lysine-specific demethylase 4A, sequence (O75164 whole entry): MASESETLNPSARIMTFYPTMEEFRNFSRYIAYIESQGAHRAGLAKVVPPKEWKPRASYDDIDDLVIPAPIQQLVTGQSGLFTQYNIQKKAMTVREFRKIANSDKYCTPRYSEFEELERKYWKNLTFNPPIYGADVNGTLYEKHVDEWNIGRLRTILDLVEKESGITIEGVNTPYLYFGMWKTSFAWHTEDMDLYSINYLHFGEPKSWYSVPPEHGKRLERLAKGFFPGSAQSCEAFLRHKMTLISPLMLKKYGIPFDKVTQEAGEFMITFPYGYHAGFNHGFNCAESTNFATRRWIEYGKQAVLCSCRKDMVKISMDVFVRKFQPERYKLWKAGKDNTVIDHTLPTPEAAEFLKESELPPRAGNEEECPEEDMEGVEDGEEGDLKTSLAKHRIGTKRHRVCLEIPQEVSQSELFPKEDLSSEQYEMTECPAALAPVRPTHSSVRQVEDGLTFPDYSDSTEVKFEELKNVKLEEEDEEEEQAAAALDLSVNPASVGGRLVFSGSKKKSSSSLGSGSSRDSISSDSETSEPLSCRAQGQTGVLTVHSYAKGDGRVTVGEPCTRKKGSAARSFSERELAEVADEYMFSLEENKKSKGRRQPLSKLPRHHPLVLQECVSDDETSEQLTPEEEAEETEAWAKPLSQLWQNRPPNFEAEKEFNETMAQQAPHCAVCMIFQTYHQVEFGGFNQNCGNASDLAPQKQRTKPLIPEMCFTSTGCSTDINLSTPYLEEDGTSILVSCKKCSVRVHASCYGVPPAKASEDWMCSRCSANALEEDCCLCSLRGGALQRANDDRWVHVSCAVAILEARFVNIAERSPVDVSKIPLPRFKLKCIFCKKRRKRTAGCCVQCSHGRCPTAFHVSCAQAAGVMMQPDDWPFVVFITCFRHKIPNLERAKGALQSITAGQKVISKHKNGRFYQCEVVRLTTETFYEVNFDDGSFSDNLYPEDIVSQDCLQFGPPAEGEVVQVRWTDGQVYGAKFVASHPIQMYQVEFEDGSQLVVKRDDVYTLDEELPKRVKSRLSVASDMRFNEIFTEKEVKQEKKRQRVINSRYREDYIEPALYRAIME
Signal transducer and activator of transcription 1-alpha/beta, sequence (P42224 whole entry): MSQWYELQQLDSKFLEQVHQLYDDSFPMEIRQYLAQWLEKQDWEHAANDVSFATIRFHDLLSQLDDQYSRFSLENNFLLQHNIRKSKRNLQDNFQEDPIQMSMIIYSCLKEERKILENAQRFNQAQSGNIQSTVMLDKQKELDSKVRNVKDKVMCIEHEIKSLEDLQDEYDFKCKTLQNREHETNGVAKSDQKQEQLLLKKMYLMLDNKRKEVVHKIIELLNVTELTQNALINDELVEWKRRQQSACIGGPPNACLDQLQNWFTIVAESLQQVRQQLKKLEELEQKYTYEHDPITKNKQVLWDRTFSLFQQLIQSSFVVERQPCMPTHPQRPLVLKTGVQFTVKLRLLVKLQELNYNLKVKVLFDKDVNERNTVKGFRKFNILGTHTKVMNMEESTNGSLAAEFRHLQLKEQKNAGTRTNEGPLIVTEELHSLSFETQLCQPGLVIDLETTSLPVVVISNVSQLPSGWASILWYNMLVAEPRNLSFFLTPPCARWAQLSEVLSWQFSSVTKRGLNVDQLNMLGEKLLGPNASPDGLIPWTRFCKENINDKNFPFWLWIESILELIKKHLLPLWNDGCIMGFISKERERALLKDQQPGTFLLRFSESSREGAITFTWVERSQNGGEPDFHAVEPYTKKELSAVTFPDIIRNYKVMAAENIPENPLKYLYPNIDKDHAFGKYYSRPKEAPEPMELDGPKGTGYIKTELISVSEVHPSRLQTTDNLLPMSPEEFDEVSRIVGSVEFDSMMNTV
Signal transducer and activator of transcription 3, sequence (P40763 whole entry): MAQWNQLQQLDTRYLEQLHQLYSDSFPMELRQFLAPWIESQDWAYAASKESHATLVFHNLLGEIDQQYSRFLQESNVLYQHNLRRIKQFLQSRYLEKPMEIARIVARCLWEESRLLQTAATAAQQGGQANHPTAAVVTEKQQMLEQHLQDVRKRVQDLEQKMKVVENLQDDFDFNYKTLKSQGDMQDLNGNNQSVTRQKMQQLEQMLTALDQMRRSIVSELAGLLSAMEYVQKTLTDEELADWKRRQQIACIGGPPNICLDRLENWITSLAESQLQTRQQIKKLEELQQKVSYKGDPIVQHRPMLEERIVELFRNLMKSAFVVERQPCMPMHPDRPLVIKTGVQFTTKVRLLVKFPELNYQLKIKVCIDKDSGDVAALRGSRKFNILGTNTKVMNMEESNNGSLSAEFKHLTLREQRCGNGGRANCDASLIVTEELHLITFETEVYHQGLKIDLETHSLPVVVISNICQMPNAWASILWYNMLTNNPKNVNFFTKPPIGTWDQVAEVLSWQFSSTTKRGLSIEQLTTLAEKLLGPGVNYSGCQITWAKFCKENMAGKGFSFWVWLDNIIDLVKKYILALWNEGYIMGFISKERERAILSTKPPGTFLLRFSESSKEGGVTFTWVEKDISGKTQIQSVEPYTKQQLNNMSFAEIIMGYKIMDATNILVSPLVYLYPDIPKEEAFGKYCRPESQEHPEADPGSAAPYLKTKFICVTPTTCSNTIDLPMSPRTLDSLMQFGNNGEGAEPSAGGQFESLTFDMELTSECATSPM

`Cn1cc(/C=C(\C#N)C(=O)Nc2ccccc2O)c2ccccc21`: the IC50 in experiment [1] was > 66.2 µM (inactive); in experiment [2], 25 µM (inactive); in experiment [3], 4.48 µM (active); in experiment [4], 5.57 µM (active).
With `O=c1nc(SCc2cccc(C(F)(F)F)c2)nc2ccccn12`, in experiment [5], the AC50 was > 60 µM (inactive).
For the compound `c1ccc(CC2CCN(c3nc(CN4CCOCC4)nc4sc5c(c34)CCCC5)CC2)cc1`, the IC50 in experiment [6] and in experiment [7] was > 55.7 µM (inactive) throughout.
